Measured values taken from PubChem BioAssay AID1963841 (Molecular Pharmacology Branch, DTP, NCI, 2024).

Test system: 439559-082-T-J2-PDC spheroid viability
Test: Anticancer human tumor 439559-082-T-J2-PDC patient-derived colon adenocarcinoma cell line growth inhibition [POLQ]
Conditions: spheroids with HUVEC and MSC; for IC50: curve of first compound; for viability, T/C: stronger effect = lower value
Method in brief: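 Growth inhibition in 3D: complex spheroids (tumor PDC, HUVEC, MSC) treated with POLQ inhibitor combinations; where Cmax unknown, highest tested concentration 10 microM, except SN-38 at 1 microM.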
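Further: spheroids exposed to compounds for seven days before readout.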
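Wherever viability, T/C is given: 100% = DMSO vehicle control viability.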

SMILES: C#Cc1c(F)ccc2cc(O)cc(-c3ncc4c(N5CC6CCC(C5)N6)nc(OCC56CCCN5CC(F)C6)nc4c3F)c12 (configuration not stated) + Nc1ccc(C#CCN(C(=O)Cc2ncc(C(F)(F)F)cc2C(F)(F)F)c2ccc(F)cc2)nn1
- IC50 (second compound 0.0316 µM): > 10 µM
- IC50 (second compound 0.1 µM): > 10 µM
- IC50 (second compound 0.316 µM): > 10 µM
- IC50 (second compound 1 µM): > 10 µM
- IC50 (second compound 3.16 µM): > 10 µM
- IC50 (second compound 10 µM): > 10 µM
- viability, T/C (second compound 0.0316 µM, first compound 0.0316 µM): 94.9%
- viability, T/C (second compound 0.0316 µM, first compound 0.1 µM): 84.2%
- viability, T/C (second compound 0.0316 µM, first compound 0.316 µM): 71.5%
- viability, T/C (second compound 0.0316 µM, first compound 1 µM): 73.7%
- viability, T/C (second compound 0.0316 µM, first compound 3.16 µM): 71.1%
- viability, T/C (second compound 0.0316 µM, first compound 10 µM): 70.2%
- viability, T/C (second compound 0.1 µM, first compound 0.0316 µM): 103%
- viability, T/C (second compound 0.1 µM, first compound 0.1 µM): 77.3%
- viability, T/C (second compound 0.1 µM, first compound 0.316 µM): 68%
- viability, T/C (second compound 0.1 µM, first compound 1 µM): 82%
- viability, T/C (second compound 0.1 µM, first compound 3.16 µM): 74.5%
- viability, T/C (second compound 0.1 µM, first compound 10 µM): 54.6%
- viability, T/C (second compound 0.316 µM, first compound 0.0316 µM): 81.3%
- viability, T/C (second compound 0.316 µM, first compound 0.1 µM): 87.2%
- viability, T/C (second compound 0.316 µM, first compound 0.316 µM): 71.9%
- viability, T/C (second compound 0.316 µM, first compound 1 µM): 69.9%
- viability, T/C (second compound 0.316 µM, first compound 3.16 µM): 70.6%
- viability, T/C (second compound 0.316 µM, first compound 10 µM): 64.9%
- viability, T/C (second compound 1 µM, first compound 0.0316 µM): 105%
- viability, T/C (second compound 1 µM, first compound 0.1 µM): 82.7%
- viability, T/C (second compound 1 µM, first compound 0.316 µM): 62.3%
- viability, T/C (second compound 1 µM, first compound 1 µM): 60.9%
- viability, T/C (second compound 1 µM, first compound 3.16 µM): 75.2%
- viability, T/C (second compound 1 µM, first compound 10 µM): 65%
- viability, T/C (second compound 3.16 µM, first compound 0.0316 µM): 79.9%
- viability, T/C (second compound 3.16 µM, first compound 0.1 µM): 84%
- viability, T/C (second compound 3.16 µM, first compound 0.316 µM): 68.4%
- viability, T/C (second compound 3.16 µM, first compound 1 µM): 59.1%
- viability, T/C (second compound 3.16 µM, first compound 3.16 µM): 60.4%
- viability, T/C (second compound 3.16 µM, first compound 10 µM): 62.7%
- viability, T/C (second compound 10 µM, first compound 0.0316 µM): 92.7%
- viability, T/C (second compound 10 µM, first compound 0.1 µM): 76.9%
- viability, T/C (second compound 10 µM, first compound 0.316 µM): 76.5%
- viability, T/C (second compound 10 µM, first compound 1 µM): 72%
- viability, T/C (second compound 10 µM, first compound 3.16 µM): 65.2%
- viability, T/C (second compound 10 µM, first compound 10 µM): 66.4%
